# Measured values reported in patent US12441768B2, “Compositions and methods for treating endometriosis” (EndoMet Biosciences, Inc., priority 2018, dated 2025).
# Read-outs that look alike come from different tables or passages of the source. *1 amine or outer side, *2 acyl side, *3 side chain or, on linkers, in order; H or OH if unused. Where a SMILES comes first, the peptide text is derived from it. Bridges are numbered along the chain shown (N, C = ends). [ ]: non-standard residue; d: D form. Glutaryl = O=C(CCCC(=O)[*:2])[*:1]; NMeNva = CCC[C@H](NC)C(=O)O
# Target: T1, β-catenin (Homo sapiens, UniProt P35222)
# T1 sequence (P35222 1-781): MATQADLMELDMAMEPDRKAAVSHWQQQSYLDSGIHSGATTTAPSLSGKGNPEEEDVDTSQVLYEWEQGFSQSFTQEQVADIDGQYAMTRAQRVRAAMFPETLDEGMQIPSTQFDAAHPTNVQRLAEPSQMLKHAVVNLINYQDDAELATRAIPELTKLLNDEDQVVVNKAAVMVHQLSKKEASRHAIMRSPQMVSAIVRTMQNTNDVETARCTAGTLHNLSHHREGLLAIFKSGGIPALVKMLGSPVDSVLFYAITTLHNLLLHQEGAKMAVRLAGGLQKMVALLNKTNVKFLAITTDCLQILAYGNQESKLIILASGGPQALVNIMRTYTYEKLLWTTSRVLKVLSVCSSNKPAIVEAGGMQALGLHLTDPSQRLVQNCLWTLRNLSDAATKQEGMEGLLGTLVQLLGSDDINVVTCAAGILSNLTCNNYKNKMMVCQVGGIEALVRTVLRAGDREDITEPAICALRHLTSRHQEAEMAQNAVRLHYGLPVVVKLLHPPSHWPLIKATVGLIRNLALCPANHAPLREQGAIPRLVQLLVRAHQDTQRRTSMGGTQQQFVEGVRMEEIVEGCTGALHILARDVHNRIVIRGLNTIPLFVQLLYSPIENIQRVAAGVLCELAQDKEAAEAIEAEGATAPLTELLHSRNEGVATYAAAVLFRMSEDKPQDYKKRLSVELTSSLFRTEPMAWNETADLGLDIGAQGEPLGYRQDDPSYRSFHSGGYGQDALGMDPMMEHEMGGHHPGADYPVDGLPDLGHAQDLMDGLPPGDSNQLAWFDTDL
# Assay: KD50 measurement using competitive fluorescence polarization (FP) with labelled TCF4
# Format: binding
# Conditions: fluorescence polarization, β-catenin
# Method in brief: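 Polarization readout (470 nm excitation, 520 nm emission) tracks loss of labelled TCF4 binding to β-catenin as test compound competes. Conditions were 5 nM tracer, 100 nM β-catenin, room temperature, compound serially diluted from 10 nM to 30 uM; run in triplicate experiments.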
SMILES,Kd (read-out: β-Cat FP KD),β-Cat FP Hill slope,Kd (β-Cat FP KD)
"CC[C@H](C)[C@@H]1NC(=O)[C@H](CC(C)C)NC(=O)[C@@H](NC(C)=O)CCCCNC(=O)C[C@@H](C(=O)O)NC(=O)[C@H](Cc2c[nH]c3ccccc23)NC(=O)[C@H](Cc2ccccc2)NC(=O)[C@H](C)NC1=O [compound 252] (HELM PEPTIDE1{[ac].K.L.I.A.F.W.D}$PEPTIDE1,PEPTIDE1,2:R3-8:R3$$$V2.0)",> 30000 nM,,
CCC[C@H]1C(=O)N[C@@H](CCC(N)=O)C(=O)N[C@@H](CO)C(=O)N[C@@H](CC(C)C)C(=O)N[C@@H](Cc2ccccc2)C(=O)N(C)[C@@H](CCC)C(=O)N2CCC[C@H]2C(=O)N2CCC[C@H]2C(=O)N(C)[C@@H](CCC)C(=O)N[C@H](C(N)=O)CCCCNC(=O)CCCC(=O)N[C@@H](CCSC)C(=O)N[C@@H](CCSC)C(=O)N1C [compound 3] (MM[NMeNva]QSLF[NMeNva]PP[NMeNva]K-NH2; linker N-12 via Glutaryl),10000 to 30000 nM,0.98,
"CCCCCCCCCCCCCCCC(=O)N[C@@H](Cc1c[nH]c2ccccc12)C(=O)N(C)[C@@H](C)C(=O)N[C@@H](CCC(N)=O)C(=O)N[C@H]1CCCCNC(=O)C[C@@H](C(=O)N[C@@H](Cc2c[nH]cn2)C(=O)N[C@H](C(=O)N[C@@H](CCC(N)=O)C(=O)N[C@@H](C)C(=O)N[C@H](C(N)=O)C(C)C)C2CCCCC2)NC(=O)[C@H](CC(N)=O)NC(=O)[C@H](CC(C)C)NC(=O)[C@H]([C@@H](C)CC)NC1=O [compound 454] (HELM PEPTIDE1{[CCCCCCCCCCCCCCCC(=O)[*:2]].W.[meA].Q.K.I.L.N.D.H.[O=C([C@@H](N[*:1])C1CCCCC1)[*:2]].Q.A.V.[am]}$PEPTIDE1,PEPTIDE1,5:R3-9:R3$$$V2.0)",,,1000 to 10000 nM
"CC[C@H](C)[C@@H]1NC(=O)[C@H](CC(C)C)NC(=O)[C@H](Cc2ccccc2)NC(=O)[C@H](Cc2c[nH]c3ccccc23)NC(=O)[C@@H](N)CCCCNC(=O)CC[C@@H](C(=O)O)NC(=O)[C@H](Cc2c[nH]c3ccccc23)NC(=O)[C@H](Cc2ccccc2)NC(=O)[C@H](CO)NC1=O [compound 226] (HELM PEPTIDE1{K.W.F.L.I.S.F.W.E}$PEPTIDE1,PEPTIDE1,1:R3-9:R3$$$V2.0)",1000 to 10000 nM,0.69,
CSCC[C@H](N)C(=O)N[C@@H](Cc1c[nH]c2ccccc12)C(=O)N[C@@H](Cc1ccccc1)C(=O)N[C@@H](CC(C)C)C(=O)N[C@@H](C)C(=O)N[C@@H](CO)C(=O)N[C@@H](Cc1ccccc1)C(=O)N[C@@H](Cc1c[nH]c2ccccc12)C(=O)NCC(=O)O [compound 11] (H-MWFLASFWG-OH),400 to 1000 nM,1.31,
CC[C@H](C)[C@@H]1NC(=O)[C@H](CC(C)C)NC(=O)[C@H](Cc2ccccc2)NC(=O)[C@H](Cc2c[nH]c3ccccc23)NC(=O)[C@@H](N)CCCCNC(=O)CN(CC(=O)O)C(=O)[C@H](Cc2c[nH]c3ccccc23)NC(=O)[C@H](C)NC(=O)[C@H](CS)NC1=O [compound 284],,0.7,

# More lines, main results first:
Kd (read-out: β-Cat FP KD),β-Cat FP Hill slope,SMILES,Kd (β-Cat FP KD)
1000 to 10000 nM,,"CCCCCCCCCCCC(=O)N[C@@H](Cc1c[nH]c2ccccc12)C(=O)N(C)[C@@H](C)C(=O)N[C@H]1CCC(=O)NCCCC[C@@H](C(=O)N[C@@H](CCC(=O)O)C(=O)N[C@@H](Cc2c[nH]cn2)C(=O)N[C@H](C(=O)N[C@@H](CCC(N)=O)C(=O)N[C@@H](CCCNC(=N)N)C(=O)N[C@H](C(=O)N[C@@H](Cc2c[nH]c3ccccc23)C(=O)NCC(N)=O)C(C)C)C(C)C)NC(=O)[C@H](CC(C)C)NC(=O)[C@H]([C@@H](C)CC)NC(=O)[C@H](CO)NC1=O [compound 451] (HELM PEPTIDE1{[CCCCCCCCCCCC(=O)[*:2]].W.[meA].E.S.I.L.K.E.H.V.Q.R.V.W.G.[am]}$PEPTIDE1,PEPTIDE1,4:R3-8:R3$$$V2.0)",
< 400 nM,0.7,"CC[C@H](C)[C@@H]1NC(=O)[C@@H](NC(=O)[C@H](CCC(N)=O)NC(=O)[C@H](C)N(C)C(=O)[C@H](Cc2c[nH]c3ccccc23)NC(=O)CCNC(C)=O)CCCCNC(=O)CC[C@@H](C(=O)N[C@@H](Cc2c[nH]cn2)C(=O)N[C@H](C(=O)N[C@@H](CCC(N)=O)C(=O)N[C@@H](CCCNC(=N)N)C(=O)N[C@H](C(=O)N[C@@H](Cc2c[nH]c3ccccc23)C(=O)NCC(N)=O)C(C)C)C2CCCCC2)NC(=O)[C@H](CC(=O)O)NC(=O)[C@H](CC(C)C)NC1=O [compound 419] (HELM PEPTIDE1{[ac].[bAla].W.[meA].Q.K.I.L.D.E.H.[O=C([C@@H](N[*:1])C1CCCCC1)[*:2]].Q.R.V.W.G.[am]}$PEPTIDE1,PEPTIDE1,6:R3-10:R3$$$V2.0)",
,0.7,"CC[C@H](C)[C@@H]1NC(=O)[C@@H](NC(=O)[C@H](CCC(N)=O)NC(=O)[C@H](C)N(C)C(=O)[C@H](Cc2c[nH]c3ccccc23)NC(C)=O)CCCCNC(=O)CC[C@@H](C(=O)N[C@@H](Cc2c[nH]cn2)C(=O)N[C@H](C(=O)N[C@H]2CCC(=O)NCCCC[C@@H](C(N)=O)NC(=O)[C@H](Cc3c[nH]c4ccccc34)NC(=O)[C@H](C(C)C)NC(=O)[C@H](CC(=O)O)NC2=O)C2CCCCC2)NC(=O)[C@H](CC(=O)O)NC(=O)[C@H](CC(C)C)NC1=O [compound 464] (HELM PEPTIDE1{[ac].W.[meA].Q.K.I.L.D.E.H.[O=C([C@@H](N[*:1])C1CCCCC1)[*:2]].E.D.V.W.K.[am]}$PEPTIDE1,PEPTIDE1,5:R3-9:R3|PEPTIDE1,PEPTIDE1,12:R3-16:R3$$$V2.0; bridges inferred)",
< 400 nM,,"CCCCCCCCCCCC(=O)N[C@@H](CCC(=O)O)C(=O)N[C@@H](CC(=O)O)C(=O)N1CCC[C@H]1C(=O)N[C@@H](CCC(N)=O)C(=O)N[C@H]1CCCCNC(=O)CC[C@@H](C(=O)N[C@@H](Cc2c[nH]cn2)C(=O)N[C@@H](CC(C)C)C(=O)N[C@@H](CCC(N)=O)C(=O)N[C@@H](CCCNC(=N)N)C(=O)N[C@H](C(=O)N[C@@H](CC(C)C)C(=O)N[C@@H](CCCCN)C(N)=O)C(C)C)NC(=O)[C@H](CC(=O)O)NC(=O)[C@H](CC(C)C)NC(=O)[C@H]([C@@H](C)CC)NC1=O [compound 444] (HELM PEPTIDE1{[CCCCCCCCCCCC(=O)[*:2]].E.D.P.Q.K.I.L.D.E.H.L.Q.R.V.L.K.[am]}$PEPTIDE1,PEPTIDE1,6:R3-10:R3$$$V2.0)",
1000 to 10000 nM,0.43,"CC[C@H](C)[C@@H]1NC(=O)[C@H](CC(C)C)NC(=O)[C@H](Cc2ccccc2)NC(=O)[C@H](Cc2c[nH]c3ccccc23)NC(=O)[C@@H](N)CCCCNC(=O)CC[C@@H](C(=O)N[C@@H](Cc2ccccc2)C(=O)N[C@@H](Cc2c[nH]c3ccccc23)C(=O)NCC(=O)O)NC1=O [compound 229] (HELM PEPTIDE1{K.W.F.L.I.E.F.W.G}$PEPTIDE1,PEPTIDE1,1:R3-6:R3$$$V2.0)",
< 400 nM,0.81,"CC[C@H](C)[C@H](NC(=O)[C@H](CO)NC(=O)[C@H](CCC(N)=O)NC(=O)[C@H](C)N(C)C(=O)[C@H](Cc1c[nH]c2ccccc12)NC(C)=O)C(=O)N[C@@H](CC(C)C)C(=O)N[C@@H](CC(=O)O)C(=O)N[C@H]1CCC(=O)NCCCC[C@@H](C(=O)N[C@H](C(=O)N[C@@H](Cc2c[nH]c3ccccc23)C(=O)NCC(N)=O)C(C)C)NC(=O)[C@H](CCC(N)=O)NC(=O)[C@H](C2CCCCC2)NC(=O)[C@H](Cc2c[nH]cn2)NC1=O [compound 470] (HELM PEPTIDE1{[ac].W.[meA].Q.S.I.L.D.E.H.[O=C([C@@H](N[*:1])C1CCCCC1)[*:2]].Q.K.V.W.G.[am]}$PEPTIDE1,PEPTIDE1,9:R3-13:R3$$$V2.0)",
